From ChEMBL document CHEMBL1142161, “Hepatitis C virus (HCV) NS5B nonnucleoside inhibitors specifically block single-stranded viral RNA synthesis catalyzed by HCV replication complexes in vitro” (Antimicrob Agents Chemother, 2007)
The source made the active and inactive calls. The calls are words filed in the database; no cut-off is given here.

Tests used:
[1] = Inhibition of replication in M414T cells containing mutant HCV replicons after 72 hrs; assay type: functional, cell-based, Homo sapiens
Hepacivirus hominis = test: Inhibition of HCV ssRNA synthesis by crude replicase complexes prepared from Huh-9-13 cells; assay type: functional
[2] = (§1) Inhibition of replication in Huh-9-13 cells containing Wild type HCV replicons after 72 hrs; assay type: functional, cell-based; conditions: Homo sapiens
Homo sapiens = species on record: Homo sapiens; test: as §1; assay type: functional, cell-based

Structure (SMILES) | EC50 [1] [nM] | Activity (Hepacivirus hominis) | EC50 [2] [nM] | Activity (Homo sapiens)
CC(C)CCn1c(=O)c(C2=NS(=O)(=O)c3ccccc3N2)c(O)c2ccccc21 | > 31600 | Dose-dependent effect | 900 | –
O=C(N[C@@H](Cc1c[nH]c2ccccc12)C(=O)O)c1ccc2c(c1)nc(-c1ccoc1)n2C1CCCCC1 | – | Dose-dependent effect | – | inactive
